{"source": "patent US7834172B2", "about": "“Composition comprising at least one nucleosidic moiety as a therapeutic agent, and CKC” (Novagali Pharma SA, priority 2007, dated 2010)", "assay": "CKC/oligonucleotide complex formation, observation of precipitation", "assay_type": "physicochemical", "details": "SEQ ID No. 2 solution 10 μM", "text": "CKC/Oligonucleotides complexes are formed due to the interaction of the CKC positive charges with the oligonucleotides negative charges conferred by each of the bases (18 in the case of SEQ ID No.2). The complex formation has the effect of neutralizing part of the negative charges of the oligonucleotides and to bring some lipophilic moieties to the complex. A stable complex with a balanced lipophilicity enhances the oligonucleotide penetration in the cells due to the affinity with the lipophilic cell membranes.\nStable complexes are formed without precipitation at ratios below 10/18 (CKC/oligonucleotide negative charges, the few lipophilic moieties being unable to induce the precipitation.", "data": [{"substance": "SEQ ID No. 2: 18 mer-phosphorotioate oligonucleotide, 5′-3′ sequence ACT CAT ATT CAT AGG GTG (DNA ACTCATATTCATAGGGTG; all phosphorothioate, sugars by position and methylation of C not given here; further chemistry not fully specified)", "values": [{"measurement": "Observation (precipitation)", "setting": "ratio CKC/negative charges 0.05, CKC 10 μM", "value": "No precipitation"}, {"measurement": "Observation (precipitation)", "setting": "ratio CKC/negative charges 0.27, CKC 50 μM", "value": "No precipitation"}, {"measurement": "Observation (precipitation)", "setting": "ratio CKC/negative charges 0.55, CKC 100 μM", "value": "No precipitation"}, {"measurement": "Observation (precipitation)", "setting": "ratio CKC/negative charges 0.83, CKC 150 μM", "value": "↓"}, {"measurement": "Observation (precipitation)", "setting": "ratio CKC/negative charges 1.11, CKC 200 μM", "value": "↓"}, {"measurement": "Observation (precipitation)", "setting": "ratio CKC/negative charges 1.66, CKC 300 μM", "value": "↓"}, {"measurement": "Observation (precipitation)", "setting": "ratio CKC/negative charges 2.22, CKC 400 μM", "value": "↓"}, {"measurement": "Observation (precipitation)", "setting": "ratio CKC/negative charges 2.77, CKC 500 μM", "value": "↓"}, {"measurement": "Observation (precipitation)", "setting": "ratio CKC/negative charges 4.17, CKC 750 μM", "value": "↓↓"}, {"measurement": "Observation (precipitation)", "setting": "ratio CKC/negative charges 5.55, CKC 1000 μM", "value": "↓↓↓"}, {"measurement": "Observation (precipitation)", "setting": "ratio CKC/negative charges 55.55, CKC 10000 μM", "value": "↓↓↓"}]}]}
